Measurements: patent publication US9388199B2, “Pyrrolidine derivatives and their use as complement pathway modulators” (priority 2012, dated 2016)

These molecules were tested against Recombinant human factor D (Homo sapiens (Human), UniProt P00746) (assay: Human Complement Factor D Assay: Method 1). Conditions: 10 nM factor D, substrate Z-Lys-thiobenzyl, fluorescence readout, read-out: IC50 (μM), Factor D inhibition.
Recombinant human factor D, sequence (P00746 26-253): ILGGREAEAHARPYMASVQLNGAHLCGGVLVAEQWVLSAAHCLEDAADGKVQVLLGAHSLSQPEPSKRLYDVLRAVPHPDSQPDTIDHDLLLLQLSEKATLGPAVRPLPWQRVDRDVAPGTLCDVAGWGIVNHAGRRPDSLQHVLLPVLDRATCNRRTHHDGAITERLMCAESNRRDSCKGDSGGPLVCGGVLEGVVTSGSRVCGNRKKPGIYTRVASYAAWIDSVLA
Format: biochemical
Method: Human Complement Factor D Assay: Method 1
Recombinant human factor D (expressed in E. coli and purified using standard methods) at 10 nM concentration is incubated with test compound at various concentrations for 1 hour at room temperature in 0.1 M Hepes buffer, pH 7.5, containing 1 mM MgCl2, 1 M NaCl and 0.05% CHAPS. A synthetic substrate Z-Lys-thiobenzyl and 2,4-dinitrobenzenesulfonyl-fluoresceine are added to final concentrations of 200 μM and 25 μM, respectively. The increase in fluorescence is recorded at excitation of 485 nm and emission at 535 nm in a microplate spectrofluorimeter. IC50 values are calculated from percentage of inhibition of complement factor D-activity as a function of test compound concentration.
Work on `C[Si](C)(C)CCNC(=O)[C@@H]1C[C@H]2C[C@H]2N1C(=O)Cn1nc(C(N)=O)c2ccccc21` [Example 28, 1-{2-oxo-2-[(1R,3S,5R)-3-(2-trimethylsilanyl-ethylcarbamoyl)-2-aza-bicyclo[3.1.0]hex-2-yl]-ethyl}-1H-indazole-3-carboxylic acid amide] yielded an IC50 of 0.065 µM. Molecule `CC(=O)c1nn(CC(=O)N2[C@@H]3C[C@@H]3C[C@H]2C(=O)NCCC(C)(C)C)c2ncccc12` [Example 29, (1R,3S,5R)-2-[2-(3-Acetyl-pyrazolo[3,4-b]pyridin-1-yl)-acetyl]-2-aza-bicyclo[3.1.0] hexane-3-carboxylic acid (3,3-dimethyl-butyl)-amide] has an IC50 of 0.227 µM. In the case of `CC(=O)c1nn(CC(=O)N2[C@@H]3C[C@@H]3C[C@H]2C(=O)NCCC(C)C)c2ncccc12` [Example 30, (1R,3S,5R)-2-[2-(3-Acetyl-pyrazolo[3,4-b]pyridin-1-yl)-acetyl]-2-aza-bicyclo[3.1.0] hexane-3-carboxylic acid (3-methyl-butyl)-amide], the IC50 is reported as 0.324 µM. Work on `NC(=O)c1nn(CC(=O)N2[C@@H]3C[C@@H]3C[C@H]2C(=O)NCC(F)F)c2ccccc12` [Example 32, 1-{2-[(1R,3S,5R)-3-(2,2-Difluoro-ethylcarbamoyl)-2-aza-bicyclo[3.1.0]hex-2-yl]-2-oxo-ethyl}-1H-indazole-3-carboxylic acid amide] yielded an IC50 of 0.874 µM. `CC(C)(C)C(O)CNC(=O)[C@@H]1C[C@H]2C[C@H]2N1C(=O)Cn1nc(C(N)=O)c2ccccc21` (stereo partly drawn) [Example 33, 1-{2-[(1R,3S,5R)-3-(2-Hydroxy-3,3-dimethyl-butylcarbamoyl)-2-aza-bicyclo [3.1.0]hex-2-yl]-2-oxo-ethyl}-1H-indazole-3-carboxylic acid amide] was tested, and the IC50 was 0.271 µM. Work on `CC(C)(C)C(=O)CNC(=O)[C@@H]1C[C@H]2C[C@H]2N1C(=O)Cn1nc(C(N)=O)c2ccccc21` [Example 34, 1-{2-[(1R,3S,5R)-3-(3,3-Dimethyl-2-oxo-butylcarbamoyl)-2-aza-bicyclo[3.1.0]hex-2-yl]-2-oxo-ethyl}-1H-indazole-3-carboxylic acid amide] yielded an IC50 of 0.192 µM. `CC(C)(C)C[C@@H](CO)NC(=O)[C@@H]1C[C@H]2C[C@H]2N1C(=O)Cn1nc(C(N)=O)c2ccccc21` [Example 35, 1-{2-[(1R,3S,5R)-3-((S)-1-Hydroxymethyl-3,3-dimethyl-butylcarbamoyl)-2-aza-bicyclo[3.1.0]hex-2-yl]-2-oxo-ethyl}-1H-indazole-3-carboxylic acid amide] gave an IC50 of 0.593 µM. `C[C@H](CC(C)(C)C)NC(=O)[C@@H]1C[C@H]2C[C@H]2N1C(=O)Cn1nc(C(N)=O)c2ccccc21` [Example 36, 1-{2-Oxo-2-[(1R,3S,5R)-3-((R)-1,3,3-trimethyl-butylcarbamoyl)-2-aza-bicyclo[3.1.0]hex-2-yl]-ethyl}-1H-indazole-3-carboxylic acid amide] gave an IC50 of 0.113 µM. `COC[C@H](CC(C)(C)C)NC(=O)[C@@H]1C[C@H]2C[C@H]2N1C(=O)Cn1nc(C(N)=O)c2ccccc21` [Example 37, 1-{2-[(1R,3S,5R)-3-((S)-1-Methoxymethyl-3,3-dimethyl-butylcarbamoyl)-2-aza-bicyclo[3.1.0]hex-2-yl]-2-oxo-ethyl}-1H-indazole-3-carboxylic acid amide] showed an IC50 of 0.443 µM. `CC(=O)c1nn(CC(=O)N2[C@@H]3C[C@@H]3C[C@H]2C(=O)NCCC(F)(F)F)c2cnccc12` [Example 39, (1R,3S,5R)-2-[2-(3-Acetyl-pyrazolo[3,4-c]pyridin-1-yl)-acetyl]-2-aza-bicyclo [3.1.0]hexane-3-carboxylic acid (3,3,3-trifluoro-propyl)-amide] was tested, and the IC50 was 5.32 µM. For `CC(=O)c1nn(CC(=O)N2[C@@H]3C[C@@H]3C[C@H]2C(=O)NCC(O)C(F)(F)F)c2ncccc12` (stereo partly drawn) [Example 40, (1R,3S,5R)-2-[2-(3-Acetyl-pyrazolo[3,4-b]pyridin-1-yl)-acetyl]-2-aza-bicyclo [3.1.0]hexane-3-carboxylic acid (3,3,3-trifluoro-2-hydroxy-propyl)-amide], the IC50 was 10.8 µM. `NC(=O)c1nn(CC(=O)N2[C@@H]3C[C@@H]3C[C@H]2C(=O)NCCF)c2ccccc12` [Example 41, 1-{2-[(1R,3S,5R)-3-(2-Fluoro-ethylcarbamoyl)-2-aza-bicyclo[3.1.0]hex-2-yl]-2-oxo-ethyl}-1H-indazole-3-carboxylic acid amide] was tested, and the IC50 was 1.35 µM. `CC(C)(C)C[C@H](CO)NC(=O)[C@@H]1C[C@H]2C[C@H]2N1C(=O)Cn1nc(C(N)=O)c2ccccc21` [Example 42, 1-{2-[(1R,3S,5R)-3-((R)-1-Hydroxymethyl-3,3-dimethyl-butylcarbamoyl)-2-aza-bicyclo[3.1.0]hex-2-yl]-2-oxo-ethyl}-1H-indazole-3-carboxylic acid amide] showed an IC50 of 5.36 µM. `CC(=O)c1nn(CC(=O)N2[C@@H]3C[C@@H]3C[C@H]2C(=O)NCC[Si](C)(C)C)c2cnccc12` [Example 43, (1R,3S,5R)-2-[2-(3-Acetyl-pyrazolo[3,4-c]pyridin-1-yl)-acetyl]-2-aza-bicyclo[3.1.0]hexane-3-carboxylic acid (2-trimethylsilanyl-ethyl)-amide] gave an IC50 of 0.323 µM. `CC(C)(C)C(F)CNC(=O)[C@@H]1C[C@H]2C[C@H]2N1C(=O)Cn1nc(C(N)=O)c2ccccc21` (stereo partly drawn) [Example 44, 1-{2-[(1R,3S,5R)-3-(2-Fluoro-3,3-dimethyl-butylcarbamoyl)-2-aza-bicyclo[3.1.0]hex-2-yl]-2-oxo-ethyl}-1H-indazole-3-carboxylic acid amide] was tested, and the IC50 was 0.384 µM.
